Among the data in ChEMBL document CHEMBL4229477, “Reevaluating the Substrate Specificity of the L-Type Amino Acid Transporter (LAT1)” (J Med Chem, 2018) are Activity, inhibition and Km values, retold here.

The target in series [1] is Large neutral amino acids transporter small subunit 1 (Homo sapiens) (UniProt Q01650). Description: Trans-stimulation of human LAT1 expressed in TREx HEK293 cells assessed as induction of [3H]-gabapentin efflux at 200 uM after 3 mins by scintillation counting analysis relative to L-phenylalanine. Format: cell-based.
Sequence of Large neutral amino acids transporter small subunit 1 (Homo sapiens) (Q01650 whole entry): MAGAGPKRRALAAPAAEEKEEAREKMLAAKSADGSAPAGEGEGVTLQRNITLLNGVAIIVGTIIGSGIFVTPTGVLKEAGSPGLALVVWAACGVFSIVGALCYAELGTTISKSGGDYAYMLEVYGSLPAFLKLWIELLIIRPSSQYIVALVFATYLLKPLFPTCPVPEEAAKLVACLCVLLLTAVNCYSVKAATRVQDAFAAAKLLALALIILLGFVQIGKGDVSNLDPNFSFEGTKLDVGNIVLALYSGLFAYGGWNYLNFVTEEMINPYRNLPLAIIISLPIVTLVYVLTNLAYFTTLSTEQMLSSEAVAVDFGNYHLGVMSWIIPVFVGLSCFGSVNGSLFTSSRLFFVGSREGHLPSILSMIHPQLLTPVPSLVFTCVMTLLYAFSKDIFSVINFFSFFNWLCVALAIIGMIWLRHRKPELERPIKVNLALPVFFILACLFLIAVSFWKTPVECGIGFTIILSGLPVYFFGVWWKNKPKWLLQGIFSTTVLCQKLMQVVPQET
The target is the same in series [2]. The series is described as follows: Cis-inhibition of human LAT1 expressed in TREx HEK293 cells at 200 uM assessed as inhibition of [3H]-gabapentin uptake at 200 uM preincubated for 3 mins at 37 degC followed by washing with choline buffer and measured after 3 hrs by scintillation counting analysis relative to BCH. Format: cell-based.
The test system of series [3] is N[C@@H](Cc1ccccc1)C(=O)O. The series is described as follows: Binding affinity to LAT1 (unknown origin) by in-vitro cell uptake assay. The settings on record: Homo sapiens.
Series [4] relates to N[C@@H](Cc1ccccc1)C(=O)O. The series is described as follows: (§1) Substrate activity at recombinant human LAT1 expressed in Xenopus laevis oocytes assessed as Km by measuring L-[14C]-leucine uptake by Eadie-Hofstee plot method. Format: cell-based.
The subject of series [5] is N[C@H](Cc1ccccc1)C(=O)O. Described as §1. The class given is cell-based.

Sequence of Large neutral amino acids transporter small subunit 1 (Homo sapiens), Q01650 (Q01650 whole entry): as above

As to `Cc1cccc(C[C@H](N)C(=O)O)c1`, the Activity in series [1] was determined as 140%. For the compound `N[C@@H](Cc1c[nH]cn1)C(=O)O`, the inhibition in series [2] came to 92%. Besides, the Activity in series [1] is 140%. Turning to `CC(C)C[C@](N)(Cc1ccccc1)C(=O)O`, the inhibition in series [2] was determined as 15%. In addition, in series [1], the Activity came to 19%. Turning to `N[C@H](Cc1ccc(O)cc1)C(=O)O`, the inhibition in series [2] is 35%. For the same compound, the Activity in series [1] is 85%.

As to `N[C@@H](Cc1cccc(C(=O)O)c1)C(=O)O`, in series [2], the inhibition came to 69%. Moreover, in series [1], the Activity turned out to be 56%. Take `N[C@@H](Cc1cccc(-c2ccccc2)c1)C(=O)O`: the Activity in series [1] amounted to 29%. As to `N[C@@H](Cc1cccc(CO)c1)C(=O)O`, in series [2], the inhibition was 99%. For the same compound, the Activity in series [1] turned out to be 120%.

With `N[C@H](Cc1c[nH]c2ccccc12)C(=O)O`, in series [2], the inhibition was 29%. In addition, the Activity in series [1] turned out to be 81%. For `CC(=O)Nc1cccc(C[C@H](N)C(=O)O)c1`, the inhibition in series [2] came to 85%. Further, the Activity in series [1] amounted to 110%.

Take `N[C@@H](Cc1cn(Cc2ccccc2)cn1)C(=O)O`: in series [2], the inhibition worked out at 74%. Also, the Activity in series [1] came to 81%.

In the case of `CC(C)[C@@H](N)C(=O)O`, the inhibition in series [2] was 11%. Also, the Activity in series [1] turned out to be 41%.

As to `CSCC[C@@H](N)C(=O)O`, in series [2], the inhibition stood at 56%. In series [1], the Activity amounted to 110%.

`N[C@@H](CCC(=O)O)C(=O)O`: the inhibition in series [2] was -2.4%. Also, the Activity in series [1] was found to be 27%.

In the case of `N[C@@](Cc1ccccc1)(Cc1c[nH]cn1)C(=O)O`, the inhibition in series [2] came to 19%. The Activity in series [1] amounted to 13%.

With `CC(C)(C)OC(=O)c1cccc(C[C@H](N)C(=O)O)c1`, in series [2], the inhibition came to 99%. For the same compound, the Activity in series [1] stood at 70%. The matching figures for `CC(=O)Oc1cccc(C[C@H](N)C(=O)O)c1`: 54% and 37%. Take `Nc1cccc(C[C@H](N)C(=O)O)c1`: the inhibition in series [2] stood at 100%. Also, the Activity in series [1] is 100%.

`COC(=O)c1cc(C)cc(C[C@H](N)C(=O)O)c1`: the inhibition in series [2] worked out at 71%. In addition, the Activity in series [1] was 56%.

As for `N[C@@H](Cc1cccc(Cc2ccccc2)c1)C(=O)O`, in series [1], the Activity was 29%. Turning to `NCc1cccc(C[C@H](N)C(=O)O)c1`, the inhibition in series [2] came to 27%. Also, the Activity in series [1] came to 78%. With `N[C@H](Cc1cccc(C(=O)O)c1)C(=O)O`, the inhibition in series [2] was 9%. Further, in series [1], the Activity amounted to 31%. The matching figures for `CC(=O)c1cccc(C[C@H](N)C(=O)O)c1`: 100% and 96%.

`CSCC[C@@](N)(Cc1ccccc1)C(=O)O`: the inhibition in series [2] is -0.2%. The Activity in series [1] turned out to be 27%.

With `COC(=O)c1ccc(C[C@H](N)C(=O)O)cc1`, in series [2], the inhibition stood at 37%. For the same compound, in series [1], the Activity amounted to 67%. The corresponding values for `N[C@@H](Cc1cccc(O)c1)C(=O)O` are 97% and 96%.

Consider `CC[C@H](C)[C@H](N)C(=O)O`, for which the Activity in series [1] worked out at 93%.

For the compound “Large neutral amino acids transporter small subunit 1 (Homo sapiens), Q01650”, the Km in series [3] was 11 µM; in series [4], 14.2 µM; in series [5], 121 µM. `N[C@@H](Cc1ccccc1)C(=O)O`: the Activity in series [1] was 100%. As for `COC(=O)c1cccc(C[C@@H](N)C(=O)O)c1`, the inhibition in series [2] stood at 40%. For the same compound, the Activity in series [1] came to 41%. For the compound `NCCCC[C@H](N)C(=O)O`, the inhibition in series [2] was -2.1%. The Activity in series [1] amounted to 33%.

Turning to `N[C@@H](Cc1cccc(C(=O)OCCO)c1)C(=O)O`, the inhibition in series [2] stood at 81%. The Activity in series [1] came out at 74%. `N[C@@H](Cc1cccc(C(F)(F)F)c1)C(=O)O`: the inhibition in series [2] worked out at 87%. In addition, the Activity in series [1] amounted to 59%. Take `NC(Cc1ccccc1)(Cc1ccccc1)C(=O)O`: the inhibition in series [2] came to 11%. Besides, in series [1], the Activity is 23%. With `CNC(=O)c1cccc(C[C@H](N)C(=O)O)c1`, the inhibition in series [2] came to 88%. The Activity in series [1] stood at 100%.

For `N[C@@H](Cc1c[nH]c2ccccc12)C(=O)O`, the Activity in series [1] amounted to 59%. Regarding `COC(=O)Cc1cccc(C[C@H](N)C(=O)O)c1`, the inhibition in series [2] worked out at 72%. Also, the Activity in series [1] was found to be 52%. `CC(C)C[C@@](N)(Cc1ccccc1)C(=O)O`: in series [2], the inhibition was determined as 2.1%. Also, in series [1], the Activity was determined as 27%. The matching figures for `N[C@@H](Cc1cccc(CC(=O)O)c1)C(=O)O`: 25% and 24%.

For the compound `CSCC[C@](N)(Cc1ccccc1)C(=O)O`, in series [2], the inhibition amounted to 21%. Besides, the Activity in series [1] was 56%. As to `CSCC[C@H](N)C(=O)O`, the Activity in series [1] worked out at 89%. As to `CC[C@H](C)[C@@H](N)C(=O)O`, in series [2], the inhibition was 18%. In series [1], the Activity amounted to 78%. As to `CC(C)(C)c1cccc(C[C@H](N)C(=O)O)c1`, in series [2], the inhibition was found to be 101%. Also, the Activity in series [1] was 44%. Consider `NCC(=O)O`, for which the Activity in series [1] amounted to 29%.

Turning to `N#Cc1cccc(C[C@H](N)C(=O)O)c1`, the inhibition in series [2] came to 67%. Also, the Activity in series [1] amounted to 70%. Consider `N=C(N)NCCC[C@H](N)C(=O)O`, for which, in series [1], the Activity was determined as 28%.

Consider `COC(=O)c1cccc(C[C@H](N)C(=O)O)c1`, for which the inhibition in series [2] worked out at 81%. The Activity in series [1] came to 89%. In the case of `CC(C)[C@H](N)C(=O)O`, the inhibition in series [2] came out at 43%. For the same compound, in series [1], the Activity was 100%. For the compound `N[C@H](Cc1ccccc1)C(=O)O`, the inhibition in series [2] was found to be 74%. Further, the Activity in series [1] was found to be 96%.

Regarding `N[C@@H](Cc1ccc(O)cc1)C(=O)O`, in series [1], the Activity came to 96%. Regarding `N[C@H](Cc1c[nH]cn1)C(=O)O`, in series [2], the inhibition was 33%. Further, the Activity in series [1] came out at 78%. For the compound `Cc1cc(C[C@H](N)C(=O)O)cc(C(=O)O)c1`, the inhibition in series [2] is 30%. The Activity in series [1] is 28%.

For `Cc1ccc(C[C@H](N)C(=O)O)cc1`, the Activity in series [1] was 100%.

The term inhibition denotes the relative decrease from the control value, in per cent. For orientation: Km means the concentration of substrate that gives half-maximal velocity.
